Read-outs that look alike come from different tables or passages of the source.
What was measured:
[1] = target: T1, Human neutrophil elastase (HNE) (Homo sapiens, UniProt P08246); experiment: fluorometric protease assay, MeO-Suc-Ala-Ala-Pro-Val-AMC; type: biochemical
T1 construct: gene ELANE; isolated enzyme, single polypeptide chain
T1 sequence (P08246 30-247): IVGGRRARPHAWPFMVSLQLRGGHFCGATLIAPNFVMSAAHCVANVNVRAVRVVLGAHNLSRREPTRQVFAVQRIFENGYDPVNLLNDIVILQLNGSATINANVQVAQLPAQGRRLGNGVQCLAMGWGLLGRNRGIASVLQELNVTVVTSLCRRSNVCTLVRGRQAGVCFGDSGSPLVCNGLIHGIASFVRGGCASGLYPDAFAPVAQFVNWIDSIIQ
Excerpt: fluorometric protease assay, MeO-Suc-Ala-Ala-Pro-Val-AMC on Human neutrophil elastase (HNE)

chymotrypsin = test system: T2, chymotrypsin; experiment: fluorometric protease assay, Suc-Ala-Ala-Pro-Phe-AMC; type: biochemical, Homo sapiens; conditions: […] Tris-HCl, […] NaCl pH […] °C; read-out: IC50 ± SD (μM) / Chymotrypsin
T2 construct: gene CTRB1; enzyme from human pancreas
Excerpt: fluorometric protease assay, Suc-Ala-Ala-Pro-Phe-AMC on chymotrypsin

urokinase = target: T3, urokinase (Homo sapiens, UniProt P00749); experiment: fluorometric protease assay, Z-Gly-Gly-Arg-AMC; type: biochemical; conditions: read-out: IC50 ± SD (μM) / Urokinase
T3 construct: gene PLAU; isolated enzyme; source not clearly stated
Excerpt: fluorometric protease assay, Z-Gly-Gly-Arg-AMC on urokinase

trypsin = test system: T4, trypsin; experiment: fluorometric protease assay, Z-Gly-Gly-Arg-AMC; type: biochemical, Homo sapiens; conditions: […] Tris-HCl, […] NaCl pH […] °C; read-out: IC50 ± SD (μM) / Trypsin
T4 construct: gene PRSS1; enzyme from human pancreas
Excerpt: fluorometric protease assay, Z-Gly-Gly-Arg-AMC on trypsin

kallikrein = test system: T5, kallikrein; experiment: fluorometric protease assay, H-Pro-Phe-Arg-AMC; type: biochemical, Homo sapiens; conditions: […] Tris-HCl, […] NaCl pH […] °C; read-out: IC50 ± SD (μM) / Kallikrein
T5 construct: gene KLKB1
Excerpt: fluorometric protease assay, H-Pro-Phe-Arg-AMC on kallikrein

SMILES	IC50 ([1]; read-out: IC50 ± SD) [nM]	IC50 (chymotrypsin) [µM]	IC50 (urokinase) [µM]	IC50 (trypsin) [µM]	IC50 ([1]; read-out: IC50 ± SD (nM) / HNE) [nM]	IC50 (kallikrein) [µM]
CCC1(CC)C(=O)N(c2ccc(COc3ccc4ccc(=O)oc4c3)cc2)C1=O [compound 1, 3,3-diethyl-1-(4-(((2-oxo-2H-chromen-7-yl)oxy)methyl)phenyl)-azetidine-2,4-dione]	0.42 ± 0.09	> 8	> 50	> 1		
CCC1(CC)C(=O)N(c2ccc(CBr)cc2)C1=O [compound 6]	0.64 ± 0.03					
CCC1(CC)C(=O)N(c2ccc(C(=O)OCc3ccccc3)cc2)C1=O [compound 8]	0.96 ± 0.13					
CCC1(CC)C(=O)N(c2ccc(C(=O)O)cc2)C1=O [compound 9]	14.7 ± 5.55					
CCC1(CC)C(=O)N(c2ccc(CSc3nc4cc(C(=O)NCCCNc5ccc([N+](=O)[O-])c6nonc56)ccc4o3)cc2)C1=O [compound 16, 2-((4-(3,3-diethyl-2,4-dioxoazetidin-1-yl)benzyl)thio)-N-(3-((7nitrobenzo[c][1,2,5]oxadiazol-4-yl)amino)propyl)benzo[d]oxazole-5-carboxamide]			> 2	> 1	0.85 ± 0.1	> 5
CCC1(CC)C(=O)N(c2ccc(C(=O)NCCCNc3ccc([N+](=O)[O-])c4nonc34)cc2)C1=O [compound 17]		> 0.5	> 2	> 1	0.64 ± 0.03	> 3
